Converted amounts (≈) assume the structure as drawn. Like-named read-outs stand apart in the source and are kept apart here. Some results are limits rather than exact numbers.

By MIC is commonly meant the lowest concentration found to suppress growth.

One assay deals with S. flexneri APV00906. The assay can be described thus: MIC. Format: cell-based. As to conditions: for MIC: Shigella flexneri.
For the next assay, the system named is S. flexneri APV00907. The assay can be described thus: MIC. As to conditions: for MIC: Shigella flexneri. In kind it is cell-based.
Another assay relates to S. sonnei APV00908. In words: MIC. Format: cell-based. Particulars: for MIC: Shigella sonnei.
A further assay concerns K. pneumoniae EN0262. Particulars: commercial antibiotics, data provided by IMBIM, BMC, Uppsala University; cited from earlier work.
The next assay concerns S. aureus strain no 13. In words: MIC. Particulars: S. aureus strain 13, trimethoprim 2 μg/ml.
The next assay deals with E. coli. Particulars: Ciprofloxacin 14 mg/kg; single mice.
In a further assay the test system is E. coli EN001. In words: MIC. Particulars: in didanosine+trimethoprim+uridine combination. Format: cell-based, Escherichia coli.
The subject of a further assay is K. pneumoniae EN011. In words: MIC. Format: cell-based, Klebsiella pneumoniae. As to conditions: Klebsiella pneumoniae, EN011, K. pneumoniae EN011; in didanosine+trimethoprim+uridine combination.
Another assay relates to E. coli EN013. The assay can be described thus: MIC. Format: cell-based, Escherichia coli. As to conditions: Escherichia coli, EN013, E. coli EN013; in didanosine+trimethoprim+uridine combination.
A further assay deals with P. aeruginosa EN015. In words: MIC. Format: cell-based, Pseudomonas aeruginosa. As to conditions: Pseudomonas aeruginosa, EN015, P. aeruginosa EN015; in didanosine+trimethoprim+uridine combination.
The test system of a further assay is E. coli EN0001. The assay can be described thus: MIC. Format: cell-based. Particulars: in didanosine+trimethoprim+uridine combination.
Another assay deals with K. pneumoniae EN0006. The assay can be described thus: MIC. Format: cell-based. As to conditions: in didanosine+trimethoprim+uridine combination.
A further assay relates to P. aeruginosa EN0004. In words: MIC. Format: cell-based. Particulars: in didanosine+trimethoprim+uridine combination.
The next assay deals with A. baumannii EN0007. In words: MIC. Format: cell-based, A. baumanii. Particulars: in didanosine+trimethoprim+uridine combination.
For a further assay, the system named is E. coli strain no 2. The assay can be described thus: MIC. Particulars: Escherichia coli, NO2, read-out: MIC Didanosine, E. coli strain 2.
The mark [1] stands for this setting: S. flexneri APV00906, read-out: Antibiogram MIC.
The mark [2] stands for this setting: S. flexneri APV00907, read-out: Antibiogram MIC.
Setting [3] is: S. sonnei APV00908, read-out: Antibiogram MIC.

As for `CO/N=C(\C(=O)N[C@@H]1C(=O)N2C(C(=O)O)=C(COC(C)=O)CS[C@H]12)c1csc(N)n1` [cefotaxime], the MIC with S. flexneri APV00906 (APV00906, read-out: Antibiogram MIC) is at least 64 µg/mL; in the assay on S. flexneri APV00907 (APV00907, read-out: Antibiogram MIC), at most 1 µg/mL; with S. sonnei APV00908 (APV00908, read-out: Antibiogram MIC) it was at most 1 µg/mL; in the assay on K. pneumoniae EN0262, over 32 µg/mL.
In the case of colistin, the MIC in the assay with K. pneumoniae EN0262 was 1 µg/mL.
For `CC1(C)S[C@@H]2[C@H](NC(=O)[C@H](N)c3ccccc3)C(=O)N2[C@H]1C(=O)O` [ampicillin], the MIC in the assay on K. pneumoniae EN0262 is over 128 µg/mL.
perfloxacin: the MIC in the assay on K. pneumoniae EN0262 is over 16 µg/mL.
Consider gentamicin, for which the “Antibiogram MIC” value is 4 µg/mL in the assay on S. flexneri APV00906 (S. flexneri APV00906), at most 1 µg/mL with S. flexneri APV00907 (S. flexneri APV00907) and at most 1 µg/mL in the assay with S. sonnei APV00908 (S. sonnei APV00908). Besides, the “Antibiogram category (S, I, R, R*)” value in the assay on S. flexneri APV00906 (S. flexneri APV00906), with S. flexneri APV00907 (S. flexneri APV00907) and in the assay with S. sonnei APV00908 (S. sonnei APV00908) was “R*” each time. Further, the MIC in the assay with K. pneumoniae EN0262 is 1 µg/mL.
In the case of `O=c1[nH]c(=O)n([C@H]2C[C@H](O)[C@@H](CO)O2)cc1Br` [BrdUrd], the “MIC BrdUrd” value against S. aureus strain no 13 (uridine 10 μg/ml) and in the assay on S. aureus strain no 13 (uridine 100 μg/ml) was at most 2 µg/mL throughout.
On to `C[C@@H](O)[C@H]1C(=O)N2C(C(=O)O)=C(S[C@@H]3CN[C@H](C(=O)N(C)C)C3)[C@H](C)[C@H]12` [meropenem], for which the MIC with S. flexneri APV00906 (setting [1]) was at most 0.25 µg/mL; in the assay on S. flexneri APV00907 (setting [2]), at most 0.25 µg/mL; in the assay with S. sonnei APV00908 (setting [3]) it was at most 0.25 µg/mL; in the assay with K. pneumoniae EN0262, over 8 µg/mL.
As for `CC(C)(O/N=C(\C(=O)N[C@@H]1C(=O)N2C(C(=O)[O-])=C(C[n+]3ccccc3)CS[C@H]12)c1csc(N)n1)C(=O)O` [ceftazidime], the MIC in the assay on S. flexneri APV00906 (setting [1]) is 16 µg/mL (≈ 29.3 µM); with S. flexneri APV00907 (setting [2]) it was at most 1 µg/mL; in the assay with S. sonnei APV00908 (setting [3]), at most 1 µg/mL; in the assay on K. pneumoniae EN0262, over 32 µg/mL.
Turning to `O=C(O)c1cn(C2CC2)c2cc(N3CCNCC3)c(F)cc2c1=O` [ciprofloxacin], the MIC in the assay on S. flexneri APV00906 (setting [1]) is at most 0.25 µg/mL; in the assay with S. flexneri APV00907 (setting [2]) it was at most 0.5 µg/mL; in the assay on S. sonnei APV00908 (setting [3]), at most 0.5 µg/mL; in the assay with K. pneumoniae EN0262, over 2 µg/mL. Further, the score at sampling in the assay with E. coli is given as 0.
With `NCC[C@H](O)C(=O)N[C@@H]1C[C@H](N)[C@@H](O[C@H]2O[C@H](CN)[C@@H](O)[C@H](O)[C@H]2O)[C@H](O)[C@H]1O[C@H]1O[C@H](CO)[C@@H](O)[C@H](N)[C@H]1O` [amikacin], the “Antibiogram category (S, I, R, R*)” value with S. flexneri APV00906 (S. flexneri APV00906), in the assay on S. flexneri APV00907 (S. flexneri APV00907) and in the assay with S. sonnei APV00908 (S. sonnei APV00908) was “R*” throughout. In addition, the MIC with S. flexneri APV00906 (setting [1]) was 16 µg/mL (≈ 27.3 µM); in the assay with S. flexneri APV00907 (setting [2]), 4 µg/mL (≈ 6.83 µM); in the assay on S. sonnei APV00908 (setting [3]), 4 µg/mL (≈ 6.83 µM); in the assay with K. pneumoniae EN0262, 8 µg/mL (≈ 13.7 µM).
Regarding `C[C@@H](O)[C@H]1C(=O)N2C(C(=O)O)=C(SCCN=CN)C[C@H]12` [imipenem], the MIC in the assay with S. flexneri APV00906 (setting [1]), with S. flexneri APV00907 (setting [2]) and in the assay on S. sonnei APV00908 (setting [3]) was at most 0.25 µg/mL throughout.
`CCN1CCN(C(=O)N[C@@H](C(=O)N[C@@H]2C(=O)N3[C@@H]2SC(C)(C)[C@@H]3C(=O)O)c2ccccc2)C(=O)C1=O` [piperacillin]: in the assay with K. pneumoniae EN0262, the MIC was over 256 µg/mL.
`C[C@@H](O)[C@H]1C(=O)N2C(C(=O)O)=C(S[C@@H]3CN[C@H](C(=O)Nc4cccc(C(=O)O)c4)C3)[C@H](C)[C@H]12` [Ertapenem]: the MIC in the assay on S. flexneri APV00906 (setting [1]), in the assay with S. flexneri APV00907 (setting [2]) and in the assay on S. sonnei APV00908 (setting [3]) was at most 0.5 µg/mL throughout.
For `C[C@H]1[C@H](NC(=O)/C(=N\OC(C)(C)C(=O)O)c2csc(N)n2)C(=O)N1S(=O)(=O)O` [aztreonam], the MIC with K. pneumoniae EN0262 was over 16 µg/mL.
As to `O=C1CN(/N=C/c2ccc([N+](=O)[O-])o2)C(=O)N1` [Nitrofurantoin], the MIC in the assay on S. flexneri APV00906 (setting [1]), in the assay with S. flexneri APV00907 (setting [2]) and with S. sonnei APV00908 (setting [3]) was at most 16 µg/mL in each case.
Take `CO/N=C(\C(=O)N[C@@H]1C(=O)N2C(C(=O)[O-])=C(C[N+]3(C)CCCC3)CS[C@H]12)c1csc(N)n1` [cefepime]: the MIC was 2 µg/mL (≈ 4.16 µM) with S. flexneri APV00906 (setting [1]), at most 1 µg/mL with S. flexneri APV00907 (setting [2]), at most 1 µg/mL in the assay on S. sonnei APV00908 (setting [3]) and over 16 µg/mL in the assay on K. pneumoniae EN0262.
For `O=c1[nH]cnc2c1ncn2[C@H]1CC[C@@H](CO)O1` [Didanosine, didanosine], the MIC was found to be 0.125 µg/mL in the assay with E. coli EN001; 0.125 µg/mL with K. pneumoniae EN011; 0.016 µg/mL with E. coli EN013; 1 µg/mL in the assay on P. aeruginosa EN015; 0.25 µg/mL with E. coli EN0001; 0.5 µg/mL with K. pneumoniae EN0006. Also, the MIC with P. aeruginosa EN0004 is over 4 µg/mL; in the assay with A. baumannii EN0007 it was over 4 µg/mL; in the assay with E. coli strain no 2 (trimethoprim 0, uridine 0 μg/ml) it was over 30 µg/mL; in the assay with E. coli strain no 2 (trimethoprim 0, uridine 10 μg/ml), over 30 µg/mL; with E. coli strain no 2 (trimethoprim 0, uridine 100 μg/ml), over 30 µg/mL; in the assay with E. coli strain no 2 (trimethoprim 1 μg/ml, uridine 0 μg/ml), over 2.5 µg/mL. Besides, the MIC in the assay on E. coli strain no 2 (trimethoprim 1 μg/ml, uridine 10 μg/ml) was over 2.5 µg/mL; with E. coli strain no 2 (trimethoprim 2 μg/ml, uridine 0 μg/ml) it was over 2.5 µg/mL; in the assay on E. coli strain no 2 (trimethoprim 2 μg/ml, uridine 10 μg/ml), over 2.5 µg/mL.
On to `CN(C)c1cc(NC(=O)CNC(C)(C)C)c(O)c2c1C[C@H]1C[C@H]3[C@H](N(C)C)C(O)=C(C(N)=O)C(=O)[C@@]3(O)C(O)=C1C2=O` [tigecycline], for which the MIC in the assay on S. flexneri APV00906 (setting [1]) is at most 0.5 µg/mL; in the assay with S. flexneri APV00907 (setting [2]) it was at most 0.5 µg/mL; in the assay on S. sonnei APV00908 (setting [3]) it was at most 0.5 µg/mL; in the assay on K. pneumoniae EN0262, 2 µg/mL (≈ 3.41 µM).

(Values after patent publication US10828316B2, “Method of treating bacterial infections” (priority 2016, dated 2020).)
